Source: PubChem BioAssay (NCI)
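Compound exposure: 48 hours, 5 concentrations, 96-well plates. GI50 = concentration required for 50% inhibition of growth. TGI: total growth inhibition.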

Key:
Assay in all cases: growth of human tumour cells (NCI), 48 h
786-0 renal = test system: 786-0 renal
A549 NSCLC = test system: A549 NSCLC
CAKI-1 renal = test system: CAKI-1 renal
HT29 colon = test system: HT29 colon
MDA-MB-435 = test system: MDA-MB-435
NCI-H23 lung = test system: NCI-H23 lung
NCI-H522 lung = test system: NCI-H522 lung
OVCAR-5 ovarian = test system: OVCAR-5 ovarian
SF-268 CNS = test system: SF-268 CNS
T-47D breast = test system: T-47D breast

| Compound | GI50 (786-0 renal) [µM] | TGI (786-0 renal) [µM] | GI50 (A549 NSCLC) [µM] | TGI (A549 NSCLC) [µM] | GI50 (CAKI-1 renal) [µM] | TGI (CAKI-1 renal) [µM] | GI50 (HT29 colon) [µM] | TGI (HT29 colon) [µM] | GI50 (MDA-MB-435) [µM] | TGI (MDA-MB-435) [µM] | GI50 (NCI-H23 lung) [µM] | TGI (NCI-H23 lung) [µM] | GI50 (NCI-H522 lung) [µM] | TGI (NCI-H522 lung) [µM] | GI50 (OVCAR-5 ovarian) [µM] | TGI (OVCAR-5 ovarian) [µM] | GI50 (SF-268 CNS) [µM] | TGI (SF-268 CNS) [µM] | GI50 (T-47D breast) [µM] | TGI (T-47D breast) [µM] |
| --- | --- | --- | --- | --- | --- | --- | --- | --- | --- | --- | --- | --- | --- | --- | --- | --- | --- | --- | --- | --- |
| NCCCN1CCN(CCCNc2nc3ccccc3c3[nH]c4ccccc4c23)CC1 | 0.421 | 2.94 | 0.323 | 2.37 | 0.414 | 3.45 | 0.212 | 1.99 | 0.651 | 2.41 | 0.387 | 1.44 | 0.242 | 1.31 | 0.292 | 1.48 | 0.316 | 1.94 | 0.561 | 6.85 |
| COC(=O)[C@]12CC[C@@H](C)[C@H](C)[C@@H]1C1=CC[C@@H]3[C@@]4(C)C(C=O)=C[C@@](C)(COS(C)(=O)=O)C4[C@H](O)C[C@@]3(C)[C@]1(C)CC2 (stereo not given in full) | 1.79 | 3.58 | 2.64 | 11 | 2.05 | 5.58 | 1.64 | 3.5 | 1.67 | 3.57 | 1.68 | 3.63 | 1.21 | 2.91 | 1.96 | 6.5 | 2 | 4.82 | 1.8 | 5.93 |
| CCOc1nccc2c1nc(-c1nonc1N)n2CC | > 25 | > 25 | > 25 | > 25 | > 25 | > 25 | > 25 | > 25 | > 25 | > 25 | > 25 | > 25 | 24.7 | > 25 | > 25 | > 25 | > 25 | > 25 | > 25 | > 25 |
| CC(C)C[C@H](NC(=O)CCn1ccc2ncccc2c1=O)B(O)O | 14 | > 100 | 36.1 | > 100 | 21.6 | > 100 | 6.28 | > 100 | 2.6 | 8.86 | 14.9 | > 100 | 4.26 | 25 | 23.2 | > 100 | 12.6 | > 61.2 | 5.31 | > 55 |
| O=C(CNc1ccc2c(=S)c3ccccc3[nH]c2c1)Nc1ccccc1-c1ccccc1NC(=O)CNc1ccc2c(=S)c3ccccc3[nH]c2c1 | – | 32.9 | – | 55.5 | – | 75.6 | – | 48.4 | – | > 52 | – | 32.3 | – | 24.1 | – | 53.5 | – | 52.8 | – | > 50.1 |
| Cc1cc(N(CCCNc2ccnc3cc(Cl)ccc23)Cc2ccc3c(c2)OCO3)nc(N2CCCCC2)n1 | 1.57 | 3.09 | 2.62 | 7.37 | – | – | 1.2 | 3.02 | 1.72 | 3.27 | 2.67 | 13.3 | 1.89 | 4.19 | 2.44 | 7.04 | 2.33 | 6.21 | 1.99 | 4.82 |
| COc1ccc2c(c1)c(-c1ccc(-c3cn(C)c4ccc(OC)cc34)[nH]1)cn2C | 12.2 | 36.1 | 4.04 | 17.6 | 3.36 | 11.2 | 9.38 | 42 | 4.92 | 20.6 | 4.84 | 33 | – | – | 3.11 | 11 | 3.45 | 18.1 | – | – |
| COc1ccc(-c2cc(-c3cccc(NS(C)(=O)=O)c3)nc(N)c2C#N)cc1 | 0.283 | 13.7 | 0.109 | > 93.4 | 0.0766 | > 34.4 | 0.0382 | 0.731 | 0.0256 | 0.121 | 0.256 | 39.8 | 0.0164 | 1.25 | 0.416 | > 64.6 | 0.281 | 22 | 0.362 | 13.7 |
| O=C(COc1cccc(/C=C2\Oc3ccc4ccccc4c3C2=O)c1)c1ccc(Cl)cc1 | 4.54 | 19 | > 100 | > 100 | > 100 | > 100 | > 100 | > 100 | 51 | > 100 | 30.5 | > 100 | 6.3 | 23.2 | > 100 | > 100 | 23.1 | 79.5 | 15.3 | 52.4 |
| CC(NC(=O)C(=O)N/N=C1\C[C@@H](c2ccccc2)Nc2ccccc21)c1ccccc1 (stereo not given in full) | – | > 100 | – | > 100 | – | > 100 | – | > 100 | – | – | – | > 100 | – | > 100 | – | > 100 | – | > 100 | – | – |
| N#C/C(=C\c1c(-c2ccccc2)[nH]c2ccccc12)C(=O)c1ccccc1 | 16.5 | > 100 | 7.55 | > 100 | 2.45 | > 100 | 3.41 | > 100 | 0.37 | 4.14 | 16 | > 100 | 3.98 | 32.9 | > 100 | > 100 | 5.73 | 58.9 | 5.27 | > 100 |
| COc1cccc(CCC(=O)c2cc3c(N)c(C(=O)Nc4cccc(Cl)c4C)sc3nc2C)c1 | 0.53 | > 100 | 0.687 | > 100 | 0.535 | > 100 | 0.338 | – | 0.197 | 0.612 | 2.35 | > 100 | 0.368 | – | 2.68 | > 100 | 0.814 | > 100 | 0.588 | > 100 |
| Clc1ccc(CNc2nccc(-c3cnn4ncccc34)n2)cc1 | 9.19 | 24.4 | 7.66 | > 25 | 5.62 | > 18.8 | 6.46 | 21.1 | 6.3 | 20.6 | 6.74 | 22.8 | 5.85 | 19.3 | 7.66 | 24.7 | 7.25 | > 22.7 | 5.26 | > 25 |
